Usually inhibition in vivo stands for the relative decrease from the control value, in per cent. What is called ED50 is the dose at which the effect has come halfway, by size or by number of responders. Low values mean an effect at a small dose, high ones a need for a large dose. Usually IC50 stands for the concentration needed to halve the response being measured. Read a low IC50 as higher potency. As a reminder, the pKb is the Kb on a negative log10 scale, so that one unit is a factor of ten. Higher therefore signals a low Kb.

Data on 5 compounds can be found in ChEMBL document CHEMBL1124940, “N-[(arylmethoxy)phenyl] carboxylic acids, hydroxamic acids, tetrazoles, and sulfonyl carboxamides. Potent orally active leukotriene D4 antagonists of novel structure” (J Med Chem, 1990).

Data set [1] relates to Cavia porcellus. As to the kind of experiment: Tested for the inhibition of LTD4-induced bronchoconstriction in Guinea pig, compound injected intragastrically at dose of 3 mg/kg. The class given is functional. The conditions noted are these: po, route intragastric.
The subject of data set [2] is Cavia porcellus. As to the kind of experiment: Inhibition of LTD4-induced broncho constriction in Guinea pig after intraduodenal administration of a dose of 25 mg/kg. The class given is functional.
Data set [3] relates to Cavia porcellus. As to the kind of experiment: Inhibition of LTD4-induced broncho constriction in Guinea pig after intragastrical administration of a dose of 25 mg/kg. The note with it: po, route intragastric. The format is functional.
For data set [4], the system named is Cavia porcellus. Put plainly: Tested for the inhibition of LTD4-induced bronchoconstriction in Guinea pig, compound injected intraduodenally, dose of 3 mg/kg. The note with it: route intraduodenal. The class given is functional.
In data set [5] the test system is Cavia porcellus. Put plainly: Tested for the inhibition of LTD4-induced bronchoconstriction in Guinea pig, compound injected intragastrically at dose of 3 mg/kg. The conditions noted are these: po, route intragastric. The format is functional.
The subject of data set [6] is Cavia porcellus. As to the kind of experiment: In vitro inhibition of LTD4-induced bronchoconstriction into isolated guinea pig trachea by injecting intragastrically. The class given is functional. The note with it: po.
Data set [7] deals with T1, Polyunsaturated fatty acid 5-lipoxygenase (Rattus norvegicus, UniProt P12527).
T1 sequence (P12527 whole entry): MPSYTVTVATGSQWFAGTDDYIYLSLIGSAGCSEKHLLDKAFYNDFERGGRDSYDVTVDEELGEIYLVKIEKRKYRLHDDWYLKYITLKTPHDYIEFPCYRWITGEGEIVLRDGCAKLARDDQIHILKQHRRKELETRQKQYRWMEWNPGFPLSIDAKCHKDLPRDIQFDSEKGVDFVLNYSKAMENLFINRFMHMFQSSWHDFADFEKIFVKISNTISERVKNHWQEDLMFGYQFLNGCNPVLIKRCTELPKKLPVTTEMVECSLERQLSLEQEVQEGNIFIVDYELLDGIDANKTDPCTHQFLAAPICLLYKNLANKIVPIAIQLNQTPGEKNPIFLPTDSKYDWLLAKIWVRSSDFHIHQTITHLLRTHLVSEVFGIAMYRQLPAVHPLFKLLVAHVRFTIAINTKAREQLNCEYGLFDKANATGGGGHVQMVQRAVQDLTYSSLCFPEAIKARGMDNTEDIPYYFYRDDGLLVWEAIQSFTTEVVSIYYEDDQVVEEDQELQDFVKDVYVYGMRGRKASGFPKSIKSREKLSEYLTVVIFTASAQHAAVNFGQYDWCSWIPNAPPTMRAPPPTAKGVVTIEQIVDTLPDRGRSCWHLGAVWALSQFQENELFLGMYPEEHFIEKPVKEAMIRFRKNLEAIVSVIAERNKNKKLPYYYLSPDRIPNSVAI
As to the kind of experiment: Concentration that produces 50% inhibition of A-23187-stimulated radiolabeled 5-HETE and TXB2 synthesis by PMN 5-lipoxygenase.

The subject of a further data set is Rattus norvegicus. Put plainly: Antiinflammatory effect was studied in a rat carrageenan paw edema (CE) assay at 50 mg/kg. The class given is functional. A general note: In the carrageenan paw model, swelling and tenderness develop within hours.
For data set [8], the system named is Cavia porcellus. Put plainly: Dissociation constant was determined in vitro after intraduodenal administration in isolated guinea pig trachea. The format is ADME, organism-based. The note with it: in vivo, other.
In data set [9] the test system is Cavia porcellus. Put plainly: Inhibition of ovalbumin-induced broncho constriction in Guinea pig after intraduodenal administration of a dose of 25 mg/kg. The format is functional.
The species entered for data set [10] is Cavia porcellus. As to the kind of experiment: Dose of antagonist that produces 50% inhibition of ovalbumin-induced bronchoconstriction. The format is functional.
For a further data set, the target named is T2, Cyclooxygenase (Rattus norvegicus, UniProt P35355+Q63921).
T2 sequence (P35355 whole entry): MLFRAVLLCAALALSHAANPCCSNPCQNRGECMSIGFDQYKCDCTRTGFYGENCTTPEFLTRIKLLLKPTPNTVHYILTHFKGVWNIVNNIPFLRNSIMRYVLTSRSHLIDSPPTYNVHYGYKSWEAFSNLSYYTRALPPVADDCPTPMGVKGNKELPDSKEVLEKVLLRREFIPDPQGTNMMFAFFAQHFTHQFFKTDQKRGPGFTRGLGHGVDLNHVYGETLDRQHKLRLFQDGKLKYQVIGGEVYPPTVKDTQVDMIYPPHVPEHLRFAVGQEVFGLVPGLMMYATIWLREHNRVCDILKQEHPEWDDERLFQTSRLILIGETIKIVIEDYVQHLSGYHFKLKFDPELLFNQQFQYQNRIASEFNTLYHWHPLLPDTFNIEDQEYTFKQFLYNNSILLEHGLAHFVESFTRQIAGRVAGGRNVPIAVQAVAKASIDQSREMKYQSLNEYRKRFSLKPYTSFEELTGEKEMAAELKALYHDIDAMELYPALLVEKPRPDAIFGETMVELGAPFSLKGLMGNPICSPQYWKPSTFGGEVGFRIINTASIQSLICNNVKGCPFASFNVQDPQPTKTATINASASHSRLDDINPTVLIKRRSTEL
T2 sequence (Q63921 whole entry): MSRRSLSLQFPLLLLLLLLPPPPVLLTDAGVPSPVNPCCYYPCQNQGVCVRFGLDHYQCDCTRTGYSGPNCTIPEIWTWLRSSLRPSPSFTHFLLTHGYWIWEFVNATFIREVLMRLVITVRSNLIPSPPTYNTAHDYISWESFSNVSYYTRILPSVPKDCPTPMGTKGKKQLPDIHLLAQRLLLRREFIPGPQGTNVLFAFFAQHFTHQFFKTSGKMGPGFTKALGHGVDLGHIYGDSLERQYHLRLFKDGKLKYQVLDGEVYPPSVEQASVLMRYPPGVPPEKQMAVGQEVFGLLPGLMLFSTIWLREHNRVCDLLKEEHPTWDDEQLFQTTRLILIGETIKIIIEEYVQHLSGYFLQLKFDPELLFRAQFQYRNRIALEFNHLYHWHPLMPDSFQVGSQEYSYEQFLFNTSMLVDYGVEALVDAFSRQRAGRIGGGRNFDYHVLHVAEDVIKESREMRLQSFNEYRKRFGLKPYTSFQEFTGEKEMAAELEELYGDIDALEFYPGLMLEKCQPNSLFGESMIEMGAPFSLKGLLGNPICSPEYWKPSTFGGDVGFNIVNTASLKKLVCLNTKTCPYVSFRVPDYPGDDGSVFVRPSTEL
Put plainly: Concentration that produces 50% inhibition of A-23187-stimulated radiolabeled 5-HETE and TXB2 synthesis by Prostaglandin G/H synthase. The class given is protein assay.

Data set [11] relates to Cavia porcellus. As to the kind of experiment: Tested for the inhibition of ovalbumin induced bronchoconstriction in Guinea pig, compound injected intragastrically at dose of 10 mg/kg. The format is functional. The conditions noted are these: po, route intragastric.
For data set [12], the system named is Cavia porcellus. As to the kind of experiment: Tested for the inhibition of ovalbumin- induced bronchoconstriction in Guinea pig, compound injected intragastrically at dose of 25 mg/kg. The format is functional. The conditions noted are these: po, route intragastric.
Data set [13] has as its system Cavia porcellus. As to the kind of experiment: Inhibition of LTD4-induced broncho constriction in Guinea pig after intragastrical administration of a dose of 3 mg/kg. The format is functional. The conditions noted are these: po, route intragastric.
The test system of data set [14] is Cavia porcellus. As to the kind of experiment: Tested for the inhibition of LTD4-induced broncho constriction in Guinea pig, injected intraduodenally at a dose of 25 mg/kg. The class given is functional. The note with it: route intraduodenal.
In data set [15] the test system is Cavia porcellus. As to the kind of experiment: Tested for the inhibition of ovalbumin- induced bronchoconstriction in Guinea pig, injected intraduodenally, dose of 25 mg/kg. The format is functional. The conditions noted are these: route intraduodenal.
In data set [16] the test system is Cavia porcellus. Put plainly: Tested for the inhibition of LTD4-induced broncho constriction in Guinea pig; injected intraduodenally at a dose of 25 mg/kg. The note with it: route intraduodenal. The class given is functional.
Data set [17] has as its system Cavia porcellus. As to the kind of experiment: Inhibition of ovalbumin induced bronchoconstriction in Guinea pig, compound injected intraduodenally at a dose of 10 mg/kg. The conditions noted are these: route intraduodenal. The format is functional.
For data set [18], the system named is Cavia porcellus. As to the kind of experiment: Inhibition of ovalbumin induced bronchoconstriction in Guinea pig, compound injected intragastrically, dose is 25 mg/kg. The conditions noted are these: po, route intragastric. The class given is functional.
Data set [19] relates to Cavia porcellus. Put plainly: Inhibition of LTD4-induced broncho constriction in Guinea pig, compound injected intraduodenally at a dose of 25 mg/kg. The conditions noted are these: route intraduodenal. The class given is functional.
Data set [20] relates to Cavia porcellus. Put plainly: Inhibition of LTD4-induced bronchoconstriction in Guinea pig after intragastrical administration of dose of 3 mg/kg. The class given is functional. The note with it: po, route intragastric.
Data set [21] deals with Cavia porcellus. As to the kind of experiment: Inhibition of LTD4-induced broncho constriction in Guinea pig after intraduodenal administration of a dose of 3 mg/kg. The class given is functional.
In data set [22] the test system is Cavia porcellus. As to the kind of experiment: Inhibition of ovalbumin induced bronchoconstriction in Guinea pig, compound injected intragastrically, dose is 10 mg/kg. The format is functional. The note with it: po, route intragastric.
For data set [23], the system named is Cavia porcellus. Put plainly: Inhibition of LTD4-induced bronchoconstriction in Guinea pig after intragastrical administration of dose of 25 mg/kg. The format is functional. The note with it: po, route intragastric.
In data set [24] the test system is Cavia porcellus. As to the kind of experiment: Inhibition of ovalbumin induced bronchoconstriction in Guinea pig, compound injected intraduodenally at a dose of 25 mg/kg. The format is functional. The note with it: route intraduodenal.

In the case of `O=C(Cc1cccc(OCc2ccc3ccccc3n2)c1)NOCc1ccccc1`, the inhibition in vivo at 3 mg/kg in the data set with Cavia porcellus [1] was 18%. In addition, the inhibition in vivo at 25 mg/kg in the data set with Cavia porcellus [2] was less than 26%; in the data set with Cavia porcellus [3], less than 67%.
For `Cc1ccc(S(=O)(=O)NC(=O)c2cccc(OCc3ccc4ccccc4n3)c2)cc1`, the inhibition in vivo at 3 mg/kg with Cavia porcellus [4] was found to be 83%; with Cavia porcellus [5] it was 86%. Also, the median effective dose (ED50) in the data set with Cavia porcellus [6] is 0.4 mg/kg; in the data set filed under Cavia porcellus [10], 2.02 mg/kg. Further, the IC50 in data set [7] was found to be 6.2 µM; against Cyclooxygenase it was 13.4 µM. The inhibition in vivo at 50 mg/kg with Rattus norvegicus is less than 69%. In the data set on Cavia porcellus [8], the pKb is 7.78. The inhibition in vivo at 25 mg/kg with Cavia porcellus [9] was less than 80%; with Cavia porcellus [3] it was 91%; in the data set with Cavia porcellus [12], less than 57%. In the data set on Cavia porcellus [11], the inhibition in vivo at 10 mg/kg stood at 4%.
For `CS(=O)(=O)NC(=O)c1cccc(OCc2ccc3ccccc3n2)c1`, in the data set on Cavia porcellus [13], the inhibition in vivo at 3 mg/kg was found to be 20%. The inhibition in vivo at 25 mg/kg in the data set with Cavia porcellus [14] is 90%; in the data set on Cavia porcellus [15], less than 13%; in the data set on Cavia porcellus [3] it was less than 66%.
Consider `Cc1ccc(S(=O)(=O)NC(=O)c2ccc(OCc3ccc4ccccc4n3)cc2)cc1`, for which, in the data set on Cavia porcellus [16], the inhibition in vivo at 25 mg/kg was less than -9%.
In the case of `CONC(=O)c1cccc(OCc2ccc3ccccc3n2)c1`, the inhibition in vivo at 10 mg/kg came to 84% with Cavia porcellus [17] and 9% in the data set on Cavia porcellus [22]. The inhibition in vivo at 25 mg/kg was less than -2% in the data set on Cavia porcellus [18], 93% in the data set with Cavia porcellus [19], less than 72% in the data set on Cavia porcellus [23] and less than 77% in the data set on Cavia porcellus [24]. Moreover, the inhibition in vivo at 3 mg/kg in the data set with Cavia porcellus [20] is -6%; in the data set with Cavia porcellus [21], 64%.
